Tests used:
Test in all cases: GRmax, 72 h; higher = less effect;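 also: breast cell lines in 384-well plates, nine doses across a 10^4 range, Dye Drop imaging of viable cells vs DMSO and time-zero plates, GR 0 means no net growth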
BT549 = test system: BT549
EVSAT = test system: EVSAT
HCC1395 = test system: HCC1395
HCC1569 = test system: HCC1569
HCC38 = test system: HCC38
MDAMB361 = test system: MDAMB361
PDX1258 = test system: PDX1258
PDX1328 = test system: PDX1328
SUM1315 = test system: SUM1315
SUM159 = test system: SUM159
SUM52PE = test system: SUM52PE

Row | SMILES | GRmax, 72 h (BT549) [GR] | GRmax, 72 h (EVSAT) [GR] | GRmax, 72 h (HCC1395) [GR] | GRmax, 72 h (HCC1569) [GR] | GRmax, 72 h (HCC38) [GR] | GRmax, 72 h (MDAMB361) [GR] | GRmax, 72 h (PDX1258) [GR] | GRmax, 72 h (PDX1328) [GR] | GRmax, 72 h (SUM1315) [GR] | GRmax, 72 h (SUM159) [GR] | GRmax, 72 h (SUM52PE) [GR]
1 | CN1CC[C@H](c2c(O)cc(O)c3c(=O)cc(-c4ccccc4Cl)oc23)[C@H](O)C1 [Flavopiridol] (max 1 µM) | -0.44 | -0.514 | -0.644 | -0.177 | -0.448 | -0.389 | -0.507 | -0.0976 | -0.887 | -0.051 | -0.193
2 | CC(C)n1nc(-c2ccc3oc(N)nc3c2)c2c(N)ncnc21 [INK128/MLN0128] (max 3.162 µM) | 0.0717 | -0.31 | -0.0258 | 0.088 | -0.0087 | -0.846 | -0.138 | -0.159 | 0.0256 | 0.214 | -0.161
3 | CC(C)NC[C@@H](C(=O)N1CCN(c2ncnc3c2[C@H](C)C[C@H]3O)CC1)c1ccc(Cl)cc1 [Ipatasertib/GDC0068] (max 10 µM) | 0.496 | -0.311 | 0.19 | 0.234 | 0.706 | -0.58 | 0.399 | 0.704 | 0.607 | 0.591 | 0.271
4 | CN(C)C(=O)c1cc2cnc(Nc3ccc(N4CCNCC4)cn3)nc2n1C1CCCC1 [LEE011/Ribociclib] (max 10 µM) | 0.97 | 0.616 | 0.403 | 0.897 | 0.241 | 0.0436 | 1.08 | 0.265 | 0.444 | 0.436 | 0.528
5 | CCNC(=O)c1noc(-c2cc(C(C)C)c(O)cc2O)c1-c1ccc(CN2CCOCC2)cc1 [Luminespib/NVP-AUY922] (max 1 µM) | -0.106 | -0.29 | -0.152 | -0.0081 | -0.209 | -0.885 | -0.29 | -0.253 | -0.081 | -0.0637 | -0.0956
6 | CCOc1cc2ncc(C#N)c(Nc3ccc(OCc4ccccn4)c(Cl)c3)c2cc1NC(=O)/C=C/CN(C)C [Neratinib/HKI272] (max 3.162 µM) | 0.208 | 0.649 | 0.0167 | 0.117 | 0.457 | -0.528 | 0.203 | -0.0735 | 0.114 | 0.51 | 0.491
7 | O=C(c1cc(Cc2n[nH]c(=O)c3ccccc23)ccc1F)N1CCN(C(=O)C2CC2)CC1 [Olaparib/AZD2281] (max 10 µM) | 0.543 | 0.773 | 0.0945 | 0.565 | 0.425 | 0.0945 | 0.577 | 0.631 | 0.0911 | 0.76 | 0.88
8 | CC(=O)O[C@H]1C(=O)[C@@]2(C)[C@H]([C@H](OC(=O)c3ccccc3)[C@]3(O)C[C@H](OC(=O)[C@H](O)[C@@H](NC(=O)c4ccccc4)c4ccccc4)C(C)=C1C3(C)C)[C@]1(OC(C)=O)CO[C@@H]1C[C@@H]2O [Paclitaxel] (max 1 µM) | -0.207 | -0.271 | -0.458 | 0.0183 | -0.308 | -0.609 | -0.0818 | -0.403 | -0.326 | -0.201 | -0.401
9 | CS(=O)(=O)N1CCN(Cc2cc3nc(-c4cccc5[nH]ncc45)nc(N4CCOCC4)c3s2)CC1 [Pictilisib/GDC0941] (max 10 µM) | 0.146 | -0.565 | -0.0143 | -0.054 | 0.357 | -0.938 | 0.0518 | -0.167 | 0.13 | 0.2 | -0.205
10 | O=C1NC(=NCc2cccs2)SC1=Cc1ccc2ncccc2c1 [R0-3306] (max 10 µM) | -0.0782 | -0.27 | -0.235 | -0.166 | -0.239 | 0.111 | -0.274 | 0.399 | -0.252 | 0.101 | 0.114
11 | CNCc1ccc(-c2[nH]c3cc(F)cc4c3c2CCNC4=O)cc1 [Rucaparib] (max 10 µM) | 0.91 | 0.908 | 0.234 | 0.75 | 0.652 | 0.11 | 0.564 | 0.634 | 0.0259 | 0.799 | 0.961
12 | CC1(N)CCN(c2cnc(-c3cccc(Cl)c3Cl)c(N)n2)CC1 [SHP099] (max 10 µM) | 0.825 | 0.952 | 0.548 | 0.92 | 0.523 | 0.626 | 1.09 | 0.58 | 0.523 | 0.821 | 0.937
13 | CN1CCN(CCOc2cc(OC3CCOCC3)c3c(Nc4c(Cl)ccc5c4OCO5)ncnc3c2)CC1 [Saracatinib/AZD0530] (max 10 µM) | 0.556 | 0.0408 | 0.12 | 0.161 | 0.614 | -0.178 | 0.184 | -0.108 | 0.0846 | 0.723 | 0.486
14 | Cc1cc(C(C)Nc2ccccc2)c2nc(N3CCOCC3)cc(=O)n2c1 (centres undefined) [TGX221] (max 10 µM) | 0.81 | 0.331 | 0.458 | 0.774 | 0.952 | 0.799 | 0.997 | 0.778 | 0.705 | 1.02 | 0.755
15 | CN(C)C/C=C/C(=O)Nc1ccc(C(=O)Nc2cccc(Nc3ncc(Cl)c(-c4c[nH]c5ccccc45)n3)c2)cc1 [THZ1] (max 1 µM) | -0.312 | -0.245 | -0.784 | -0.325 | -0.568 | -0.72 | -0.716 | -0.171 | -0.906 | -0.122 | -0.437
16 | CN(C)C/C=C/C(=O)Nc1ccc(C(=O)N2CCC[C@@H](Nc3ncc(Cl)c(-c4c[nH]c5ccccc45)n3)C2)cc1 [THZ531] (max 1 µM) | -0.349 | 0.0226 | -0.587 | -0.155 | -0.337 | -0.743 | -0.575 | -0.184 | -0.602 | 0.627 | -0.17
17 | CN(C)C/C=C/C(=O)Nc1ccc(C(=O)Nc2cccc(Nc3cc(-c4c[nH]c5ccccc45)ncn3)c2)cc1 [THZ-P1-2] (max 10 µM) | 0.175 | 0.76 | -0.908 | -0.359 | -0.509 | 0.142 | -0.891 | 0.656 | -0.299 | -0.394 | -0.598
18 | Cc1nc(-c2cn3c(n2)-c2ccc(-c4cnn(C(C)(C)C(N)=O)c4)cc2OCC3)n(C(C)C)n1 [Taselisib/GDC0032] (max 10 µM) | 0.095 | -0.535 | -0.0177 | -0.121 | 0.0628 | -0.99 | 0.106 | -0.0629 | 0.0942 | 0.187 | -0.0187
19 | O=C1NC(=O)[C@@H](c2cn3c4c(cccc24)CCC3)[C@@H]1c1c[nH]c2ccccc12 [Tivantinib/ARQ197] (max 10 µM) | -0.265 | -0.336 | -0.483 | -0.11 | -0.27 | -0.606 | -0.209 | -0.479 | -0.43 | -0.281 | -0.354
20 | Nc1ccc(-c2ccc3ncc4ccc(=O)n(-c5cccc(C(F)(F)F)c5)c4c3c2)cn1 [Torin2] (max 1 µM) | -0.0209 | -0.334 | -0.142 | -0.0827 | -0.211 | -0.964 | -0.207 | -0.249 | -0.0903 | 0.172 | -0.351
21 | CC[C@@H]1C(=O)N(C)c2cnc(Nc3ccc(C(=O)N[C@H]4CC[C@H](N5CCN(CC6CC6)CC5)CC4)cc3OC)nc2N1C(C)C [Volasertib/BI6727] (max 1 µM) | -0.229 | -0.375 | -0.296 | 0.0147 | -0.26 | -0.497 | -0.232 | -0.529 | -0.388 | 0.0326 | -0.409
22 | O=C(CCCCCCC(=O)Nc1ccccc1)NO [Vorinostat] (max 10 µM) | 0.113 | -0.497 | -0.0589 | -0.294 | -0.285 | -0.939 | -0.0232 | -0.285 | -0.0668 | 0.181 | 0.0882
23 | C=CC(=O)Nc1ccc(C(=O)Nc2[nH]nc3c2CN(C(=O)N[C@H](CN(C)C)c2ccccc2)C3(C)C)cc1 [YKL-5-124] (max 10 µM) | -0.58 | -0.401 | -0.267 | -0.164 | -0.39 | -0.835 | -0.587 | 0.177 | -0.406 | -0.137 | 0.0084
24 | CN1CCN(C(=O)c2ccc3cc(CCNc4ncnc5ccc(C#N)cc45)ccc3c2)CC1 [senexin b] (max 10 µM) | 0.675 | 0.642 | 0.307 | 0.514 | 0.614 | 0.271 | 0.603 | 1.02 | 0.656 | 0.881 | 0.742

— the supplement of paper PMC9663587
